Earlier results, collected in US11376246B2, “Inhibiting mutant IDH-1” (FORMA Therapeutics, Inc., priority 2018, dated 2022).

Settings: Literature reported data; cited from earlier work

Compound | BBB+
Cc1cc([C@H](C)Nc2nccc(N3C(=O)OC[C@@H]3C(C)C)n2)ncc1-c1ccnc(C(F)(F)F)c1 [IDH305] | Yes
Cc1cc(-c2cnc([C@H](C)Nc3nccc(N4C(=O)OC[C@@H]4C(C)C)n3)nc2)ccc1F [IDH889] | Yes
